According to US20090280166A1, “FERRITIN AS A THERAPEUTIC TARGET IN ABNORMAL CELLS” (The Penn State Research Foundation, priority 2005, published 2009):
“Also recorded” adds a separate entry of the source.

Columns and labels:
H-ferritin = test: Ferritin in nuclear and cytoplasmic fractions after DFO, alloxan and FAC treatments (Western blot); assay type: cell-based, human; conditions: SW1088 cells
Text: FIGS. 9A-9C show nuclear import of ferritin is inhibited by alloxan, whereas cytoplasmic levels of ferritin are not affected. Under resting conditions, SW1088 cells contain ferritin in both nuclear and cytoplasmic compartments. […] The reappearance of ferritin in cytoplasmic and nuclear compartments after DFO treatment (alone) or treatment with DFO+alloxan is affected by the presence of alloxan (alx) and/or FAC in the culture medium. FIG. 9A is a schematic illustration of the experimental procedure, showing the time course of changes in culture conditions. FIG. 9B is a scan of Western blots of nuclear (N) and cytoplasmic (C) extracts of SW1088 cells, resolved by SDS/PAGE. Samples of the nuclear extract contained 20 μg of total protein, whereas samples of the cytoplasmic extract contained […] of total protein. Ferritin was detected with HS-59 mouse monoclonal antibody and horseradish peroxidase-conjugated goat anti-mouse IgG. Lane a, extracts from cells cultured in medium containing 100 μM DFO; lane b, extracts of cells cultured in normal medium; lane c, extracts of cells cultured in 100 μM FAC; lane d, extracts of cells cultured in 100 μM DFO+1 mM alloxan; lane e, extracts of cells cultured in normal medium supplemented with 1 mM alloxan; lane f, extracts of cells cultured in medium supplemented with 100 μM FAC+1 mM alloxan. FIG. 9C is a graph showing a summary of ferritin contents. The relative amounts of ferritin in the nuclear (black bars) and cytoplasmic (striped bars) fractions were measured after an initial treatment with DFO alone or DFO+[…] and a subsequent culture in the presence of DFO alone, normal medium, medium supplemented with FAC, medium supplemented with DFO+alloxan, normal medium+alloxan or normal medium+FAC and alloxan. The relative amounts of ferritin are normalized to the amount of ferritin in the corresponding fractions before the initial DFO treatment.
DFO and alloxan treatments: The iron chelator DFO was used to examine the effect of iron chelation on ferritin localization in the nuclei of astrocytoma cells. Cells were cultured in the presence of 100 μM DFO for 72 h. Alloxan, an inhibitor of O-glycosylation, was used in astrocytoma cell cultures at final concentrations of 0.1 and 1.0 mM. Six cultures were established in parallel and allowed to reach 80% confluence. The first three were treated with 100 μM DFO for 72 h, then rinsed in Hanks balanced salt solution to remove the free DFO and returned to standard medium alone or to a medium containing 0.1 mM FAC (ferric ammonium citrate) or 0.1 mM DFO. After these treatments, culturing was continued for 24 h. Another set of three cultures were treated with 100 μM DFO+1 mM alloxan for 72 h. The cells were rinsed in Hanks balanced salt solution to remove free reagents and returned to standard medium containing 1 mM alloxan or a medium containing 0.1 mM FAC+[…] or a medium containing 100 μM DFO+1 mM alloxan. After these treatments, the culturing was continued for 24 h. At the end of the culture period, cells were harvested and nuclear and cytosolic fractions were prepared as described below.
Nuclear and cytosolic fractions: Plated astrocytoma cells were rinsed in Hanks balanced salts, trypsinized and the cells were collected by centrifugation (800 g for 10 min). The pelleted cells were rinsed twice in ice-cold PBS buffer [0.01 M sodium phosphate (pH 7.4 at 25° C.), 138 mM NaCl and 2.7 mM KCl] and collected by centrifugation. The cell pellets were resuspended in 20 vol. of 10 mM Hepes (pH 7.9 at 25° C.), 1.5 mM MgCl2, 10 mM NaCl and 0.5 mM DTT (dithiothreitol) containing the following protease inhibitors: AEBSF (1 mM), aprotinin (0.8 μM), leupeptin (20 μM), bestatin (40 μM), pepstatin (15 μM) and E-64 (14 μM). Cell suspensions were incubated in ice for 30 min and collected by centrifugation. […]

[1] = test system: protein O-glycosylation in SW1088 human astrocytoma cells; test: Detection of O-glycosylated proteins by slot blot with anti-O-GlcNAc antibody; assay type: cell-based; conditions: SW1088 cells, 0, 0.1, 0.5 and 1.0 mM alloxan for 96 h
Description: FIG. 10 is a graph showing alloxan inhibits protein O-glycosylation in SW1088 human astrocytoma cells. Cells were grown in triplicate independent cultures in the presence of 0, 100, 500 μM and 1 mM concentrations of alloxan. Aliquots of whole cell lysates from each culture were applied to a nitrocellulose membrane using a vacuum slot blot device. The membrane was blocked in a 5% solution of non-fat dry milk at 21±1° C. for 1 h and incubated overnight with mouse monoclonal anti-O-GlcNAc antibody. Immunocomplexes were detected and quantified. […]
Detection of glycosylated proteins: SW1088 cultures were treated with different concentrations of alloxan for 96 h. […] Protein concentrations were measured and aliquots containing 1, 5 and 10 μg of total cell proteins were applied in triplicate to a 0.2 μm nitrocellulose membrane (Amersham Biosciences). […] Immunocomplexes were detected using peroxidase-conjugated goat anti-mouse IgG (Sigma) and visualized with the ECL+kit (Amersham Biosciences). […]
(§1) The effect of alloxan on ferritin redistribution is probably due to its influence on protein glycosylation or due to some other currently unknown effect. […] The cells were then harvested and total soluble proteins were analyzed by slot blot for O-glycosylation.

[2] = molecular target: recombinant human H-ferritin (rH-ferritin) (Homo sapiens, UniProt P02794); test: Supercoil relaxation assay for iron release from ferritin; assay type: biochemical; conditions: rH-ferritin with or without 1 mM alloxan
Description: Supercoil-relaxation assays were performed with pUC19 plasmid DNA (0.5 μg/assay). FIG. 11A is a scan showing electrophoretic profiles of pUC19 DNA incubated in the presence of recombinant H-ferritin (lanes a-e), recombinant H-ferritin+1 mM alloxan (lanes f-j) and 1 mM alloxan alone (lanes k-o). Reaction times were as indicated. Lane p, a sample of the superhelical pUC19 DNA that was not treated with ferritin. Band assignments: R, relaxed circle form; SC, superhelical topoisomers. FIG. 11B is a graph showing the mole fraction of superhelical DNA as a function of the reaction time for samples containing rH-ferritin (♦), rH-ferritin+1 mM alloxan (▪) and 1 mM alloxan alone (▴). Error bars represent S.D. values.
Supercoil relaxation assay: DNA backbone breakage was detected using a superhelical DNA relaxation assay (Tachon, P. (1989) Free Radical Res. Commun. 7, 1-10; Crowe, A. and Morgan, E. H. (1992) Brain Res. 592, 8-16). The reaction mixtures (30 μl) contained covalently closed circular pUC19 DNA (0.5 μg; Sigma) dissolved in 10 mM Hepes (pH 7.5), 50 mM NaCl, 2.5 mM MgCl2 and 2.5 mM DTT. […] The mole fractions of superhelical and relaxed forms were measured by densitometry of photographic negatives of the gels after staining with 0.5 μg/ml ethidium bromide. […]

[3] = Cell viability assay (MTT) of alloxan-treated cells; assay type: cell-based, human; conditions: human, SW1088 astrocytoma cells, 1 mM alloxan, read-out: cells remaining viable (MTT)
Description: (§2) FIG. 10 is a graph showing alloxan inhibits protein O-glycosylation in SW1088 human astrocytoma cells. Cells were grown in triplicate independent cultures in the presence of 0, 100, 500 μM and 1 mM concentrations of alloxan. Aliquots of whole cell lysates from each culture were applied to a nitrocellulose membrane using a vacuum slot blot device. The membrane was blocked in a 5% solution of non-fat dry milk at 21±1° C. for 1 h and incubated overnight with mouse monoclonal anti-O-GlcNAc antibody. Immunocomplexes were detected and quantified. As an internal control for this assay, membrane loadings of 1 (♦), 5 (▪) and 10 (▴) μg of total protein were tested and they gave similar responses to changes in the concentration of alloxan in the original cultures.
(§3) Cell viability assay: Cell viability measurement was performed using the reagent 3-(4,5-dimethylthiazol-2-yl)-2,5-diphenyl-2H-tetrazolium bromide (MTT), obtained from Roche Applied Science (Indianapolis, Ind., U.S.A.). The assay was performed according to the manufacturer's instructions.
as §1

[4] = test system: SW1088 human astrocytoma cells; test: as above; assay type: cell-based; conditions: alloxan up to 1.0 mM, 96 h
Description: as §2, §3, §1

rat primary astrocytes = test: Cytotoxicity of iron compound TMHF on transfected astrocytes (MTT); assay type: cell-based; conditions: three concentrations of TMHF
Description: FIG. 16 is a graph showing the cytotoxicity profile of stress factors on rat primarily astrocytes transfected with NLS and non-NLS H ferritin construct. Cytotoxicity was determined by MTT assay after treatment with three different concentrations of soluble iron compound 3,5,5-trimethyl (hexanoyl) ferrocene (TMHF). A total of 12 trials were run in triplicate for each sample and the grand mean and SE are reported.
Cytotoxicity was determined by MTT assay after treatment with three different concentrations of soluble iron compound 3,5,5-trimethyl (hexanoyl) ferrocene (TMHF). A total of 12 trials were run in triplicate for each sample and the grand mean and SE are reported. […] Other common stressors (hydrogen peroxide, cytokines, hypoxia) will also be examined.

primary rat astrocytes = test: Longevity of transfected astrocytes (MTT); assay type: cell-based
Description: FIG. 15 is a graph showing the results of the longevity of transfected astrocytes versus control. Cells were transfected and then plated at equal density.
Cells were transfected and then plated at equal density. The longevity experiments were performed in two ways. First, cell viability was monitored in cultures in which the media was changed every seven days. In the second experiment, the media was not changed for 30 days to test nutrient deprivation. An MTT assay was performed on randomly selected cell cultures from 24 well plates every two weeks to monitor cell viability. […] The non-transfected astrocytes, however, die at an increased rate compared to the ferritin transfected cells. We have continued the study out to five months on the transfected cells, but none of the non-transfected cells are alive.
Thirdly, the non-NLS ferritin translocated to the nucleus over time.

[5] = 100 μM DFO+1 mM alloxan in the initial growth period, then fresh medium

Chain of recombinant human H-ferritin (rH-ferritin) (P02794 whole entry): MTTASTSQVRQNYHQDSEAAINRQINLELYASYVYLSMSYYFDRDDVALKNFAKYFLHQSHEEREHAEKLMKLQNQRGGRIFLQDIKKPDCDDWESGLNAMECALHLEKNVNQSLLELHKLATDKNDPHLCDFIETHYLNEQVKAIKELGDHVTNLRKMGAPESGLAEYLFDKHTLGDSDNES

Compound: CC(=O)N(O)CCCCCNC(=O)CCC(=O)N(O)CCCCCNC(=O)CCC(=O)N(O)CCCCCN [DFO, desferoxamine]
- ferritin content in nuclear and cytoplasmic compartments (H-ferritin; 100 μM DFO): significantly decreases ferritin content in both compartments

Compound: O=C1NC(=O)C(=O)C(=O)N1 [alloxan]
- total amount of O-glycosylated protein [1]: decreases the total amount of O-glycosylated protein in a dose-dependent manner
- iron release from ferritin (DNA nicking of pUC19) [2]: does not effect the rate or amount of iron release from ferritin; also recorded: does not cause a significant release of iron from ferritin
- cytoplasmic ferritin after DFO treatment (reappearance) (H-ferritin; [5]): remained essentially unchanged
- reappearance of nuclear ferritin after DFO treatment (H-ferritin; [5]): inhibited
- cytoplasmic ferritin after DFO treatment (reappearance) (H-ferritin; 100 μM DFO+1 mM alloxan in the initial growth period, then fresh medium, listed as Alloxan): no effect
- FAC-induced increase in nuclear ferritin (H-ferritin; 100 μM FAC+1 mM alloxan): blocked
- FAC-induced increase of cytoplasmic ferritin (H-ferritin; 100 μM FAC+1 mM alloxan): not the increase of cytoplasmic ferritin
- disappearance of ferritin from the nuclear fraction when DFO is added (H-ferritin; DFO + alloxan): does not prevent
- viability at 96 h, 1 mM [3]: 87 ± 3%
- effect on cell viability [4]: did not affect cell viability; also recorded: without significant effects on cell viability

Compound: ferric ammonium citrate [FAC]
- increase in nuclear and cytoplasmic ferritin contents relative to levels found in untreated cells (H-ferritin; 100 μM FAC added to standard medium after DFO): approx. 200%

Compound: ferritin
- ability of astrocytes to withstand iron induced stress (rat primary astrocytes): increases the ability of primary astrocytes to withstand iron induced stress
- survival of transfected cells, media changed (primary rat astrocytes; media changed every seven days): three months
- survival of transfected cells, media not changed (primary rat astrocytes; nutrient deprivation, media not changed): 30 days
